# According to paper PMC8355244, “A fragment-based approach identifies an allosteric pocket that impacts malate dehydrogenase activity” (Communications Biology, 2021):
# Several values for one entry are separate records, joined by “and”; a condition that tells them apart may be missing. Identical values can stand only once. Like-named read-outs stand apart in the source and are kept apart here.
# Key:
# [1] = target: T1, WT PfMDH (Plasmodium falciparum, UniProt Q6VVP7); assay: Activity screening of 4DT / 4-phenylthiazol-2-amine derivatives (oxidation of malate, absorbance at 340 nm); format: biochemical; details: for inhibition at 500 µM: Dunnett's multiple comparisons test, read-out: Mean Diff. (positive control vs. compound); for Slope repl1 / Slope repl2: linear regression slope of absorbance 340 nm vs time; for Slope normalized repl1: slope relative to control = 1, replicate 1; for Slope normalized repl2: slope relative to control = 1, replicate 2
# T1 construct: The full-length WT PfMDH gene was cloned into pETM-13; made in house; host or cells: E. coli Rosetta 2 (DE3) pLysS
# Description: The oxidation of malate to oxaloacetate was assayed spectrophotometrically in flat-bottomed Corning 96-well microplates in a total volume of 250.0 µl in 50 mM glycine buffer pH 10.2[24] with an additional 400 mM NaCl for protein stability. The increase of absorbance at 340 nm was recorded in kinetic mode using a Tecan Spark multimode microplate reader at 298 K. A mastermix of 50 mM NAD+ and 44 μM PfMDH was used for both the screening and kinetics experiments. The final concentration of protein and cofactor were […], respectively. Positive control groups were set (absence of compound) in the same plate as the treated group. The absorbance from the background noise was subtracted from the data and then a linear regression model was employed in order to get the line slope from the first 5 min of the reaction. The percentage of enzymatic activity has been calculated as described by Eq. (1)1 enzymeactivity(%)=slopetreated/slopepositivecontrol*100
# 1.3 µL of derivatives of 4-phenylthiazol-2-amine in 100% DMSO were mixed with 237.7 µL of a mastermix of WT PfMDH previously incubated with NAD+. The final compound concentration used in this screening was 500 µM in the presence of 0.5% (v/v) DMSO. The microplate was sealed with silver foil for 1-h incubation at 25–35 °C. Finally, reactions in both the samples and control wells were started upon the addition of 13.0 µL of 5 mM malate). At the end of the experiments, the reaction of the plate was spectrophotometrically assayed at 600 nm in order to identify turbidity due to the low solubility of the compound. All measurements were performed in duplicate.
# [2] = target: T2, PfMDH (Plasmodium falciparum, UniProt Q6VVP7); assay: Thermal shift assay (TSA); format: binding; details: for TSA melting curve raw signal: triplicate columns; for TSA melting curve raw fluorescence signal: three replicate columns
# T2 construct: The full-length WT PfMDH gene was cloned into pETM-13; made in house; host or cells: E. coli Rosetta 2 (DE3) pLysS
# Description: The TSA experiment was conducted in a BioRad CSX 96 (Biorad). Each reaction consisted of 1 mM of compound (100 mM stock in 100% (v/v) DMSO) and 10 μM PfMDH in 100 mM Na–phosphate buffer pH 7.4, 400 mM NaCl, and 10× Sypro Orange (Invitrogen) for a total volume of 100 μl. Control experiments were performed with 1% (v/v) DMSO. Inflection points were determined using BioRad CFX96™ control software. Generally, a temperature increase of over 1 °C is interpreted as a result of the stabilization of the protein-ligand interaction. On the contrary, a negative shift is considered a destabilization caused by the fragment.
# [3] = 500 µM compound, Dunnett test details, positive control mean 100, n 2, read-out: Mean 2 (mean % enzymatic activity of treated group)
# [4] = 500 µM compound, control 100%, replicate 1, read-out: % enzymatic activity repl1
# [5] = 500 µM compound, control 100%, replicate 2, read-out: % enzymatic activity repl2
# T1 sequence (Q6VVP7 entry or part of it): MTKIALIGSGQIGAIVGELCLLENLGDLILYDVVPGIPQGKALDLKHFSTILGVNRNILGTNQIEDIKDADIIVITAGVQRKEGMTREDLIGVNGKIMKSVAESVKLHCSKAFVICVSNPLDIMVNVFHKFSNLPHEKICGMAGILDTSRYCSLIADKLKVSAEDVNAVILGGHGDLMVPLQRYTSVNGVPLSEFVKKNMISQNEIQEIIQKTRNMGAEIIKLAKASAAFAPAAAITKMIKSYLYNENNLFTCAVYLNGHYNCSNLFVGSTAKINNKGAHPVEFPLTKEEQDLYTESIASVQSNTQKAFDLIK
# T2 sequence (Q6VVP7 entry or part of it): as above
structure (smiles),measurement,setting,value
Nc1nc(-c2ccc(F)c(F)c2)cs1 [1a],remaining activity at 500 µM,[1]; [3],62%
same,inhibition at 500 µM,[1]; 500 µM compound,38.5%
same,remaining activity at 500 µM,[1]; [4],64%
same,remaining activity at 500 µM,[1]; [5],59%
same,Slope repl1,"[1]; 500 µM compound, replicate 1",0.02136
same,Slope repl2,"[1]; 500 µM compound, replicate 2",0.02071
same,Slope normalized repl1,[1]; 500 µM compound,0.6412
same,Slope normalized repl2,[1]; 500 µM compound,0.591
same,remaining activity at 500 µM,[1]; read-out: enzyme activity,62%
Nc1nc(-c2ccc(Cl)c(Cl)c2)cs1 [7a],remaining activity at 500 µM,[1]; [3],24%
same,inhibition at 500 µM,[1]; 500 µM compound,76.5%
same,remaining activity at 500 µM,[1]; [4],26%
same,remaining activity at 500 µM,[1]; [5],21%
same,Slope repl1,"[1]; 500 µM compound, replicate 1",0.008711
same,Slope repl2,"[1]; 500 µM compound, replicate 2",0.007289
same,Slope normalized repl1,[1]; 500 µM compound,0.2615
same,Slope normalized repl2,[1]; 500 µM compound,0.208
same,remaining activity at 500 µM,[1]; read-out: enzyme activity,23%
NCc1ccc(-c2csnn2)cc1 [2b],remaining activity at 500 µM,[1]; [3],65%
same,inhibition at 500 µM,[1]; 500 µM compound,35%
same,remaining activity at 500 µM,[1]; [4],83%
same,remaining activity at 500 µM,[1]; [5],47%
same,Slope repl1,"[1]; 500 µM compound, replicate 1",0.02772
same,Slope repl2,"[1]; 500 µM compound, replicate 2",0.01654
same,Slope normalized repl1,[1]; 500 µM compound,0.8322
same,Slope normalized repl2,[1]; 500 µM compound,0.472
same,remaining activity at 500 µM,[1]; read-out: enzyme activity,65%
CC(C)c1ccc(-c2csc(N)n2)cc1 [4PA-iPr],TSA melting curve raw signal,[2]; Temperature 25,8994.553 and 9647.617 and 6438.185
same,TSA melting curve raw signal,[2]; Temperature 28.5,8708.714 and 9422.913 and 6243.713
same,TSA melting curve raw signal,[2]; Temperature 29,8666.326 and 9387.251 and 6213.386
same,TSA melting curve raw signal,[2]; Temperature 29.5,8621.607 and 9346.814 and 6180.231
same,TSA melting curve raw signal,[2]; Temperature 30,8573.486 and 9300.135 and 6142.94
same,TSA melting curve raw signal,[2]; Temperature 30.5,8522.699 and 9247.509 and 6102.88
same,TSA melting curve raw signal,[2]; Temperature 31,8469.615 and 9188.155 and 6059.768
same,TSA melting curve raw signal,[2]; Temperature 31.5,8414.733 and 9123.458 and 6015.201
same,TSA melting curve raw signal,[2]; Temperature 32,8359.407 and 9056.051 and 5970.18
same,TSA melting curve raw signal,[2]; Temperature 32.5,8304.924 and 8988.081 and 5926.995
same,TSA melting curve raw signal,[2]; Temperature 33,8252.482 and 8921.905 and 5886.489
same,TSA melting curve raw signal,[2]; Temperature 33.5,8202.645 and 8859.372 and 5849.818
same,TSA melting curve raw signal,[2]; Temperature 34,8155.604 and 8800.883 and 5816.694
same,TSA melting curve raw signal,[2]; Temperature 34.5,8111.732 and 8745.628 and 5787.575
same,TSA melting curve raw signal,[2]; Temperature 35,8070.534 and 8693.896 and 5761.965
same,TSA melting curve raw signal,[2]; Temperature 35.5,8031.026 and 8644.443 and 5738.964
same,TSA melting curve raw signal,[2]; Temperature 36,7993.542 and 8596.911 and 5718.436
same,TSA melting curve raw signal,[2]; Temperature 36.5,7957.673 and 8551.007 and 5700.528
same,TSA melting curve raw signal,[2]; Temperature 37,7922.464 and 8507.049 and 5684.445
same,TSA melting curve raw signal,[2]; Temperature 37.5,7887.874 and 8463.879 and 5669.608
same,TSA melting curve raw signal,[2]; Temperature 38,7853.441 and 8420.795 and 5655.816
same,TSA melting curve raw signal,[2]; Temperature 38.5,7818.479 and 8377.106 and 5642.728
same,TSA melting curve raw signal,[2]; Temperature 39,7782.8 and 8332.642 and 5629.831
same,TSA melting curve raw signal,[2]; Temperature 39.5,7746.169 and 8286.504 and 5617.536
same,TSA melting curve raw signal,[2]; Temperature 40,7708.198 and 8238.766 and 5605.837
same,TSA melting curve raw signal,[2]; Temperature 40.5,7669.164 and 8190.253 and 5594.748
same,TSA melting curve raw signal,[2]; Temperature 41,7629.283 and 8141.701 and 5584.57
same,TSA melting curve raw signal,[2]; Temperature 41.5,7588.559 and 8093.153 and 5575.514
same,TSA melting curve raw signal,[2]; Temperature 42,7547.254 and 8045.202 and 5567.299
same,TSA melting curve raw signal,[2]; Temperature 42.5,7505.687 and 7998.361 and 5560.186
same,TSA melting curve raw signal,[2]; Temperature 43,7464.06 and 7952.024 and 5554.6
same,TSA melting curve raw signal,[2]; Temperature 43.5,7421.867 and 7905.832 and 5550.504
same,TSA melting curve raw signal,[2]; Temperature 44,7379.597 and 7859.513 and 5547.899
same,TSA melting curve raw signal,[2]; Temperature 44.5,7337.446
same,TSA melting curve raw fluorescence signal,[2]; Temperature 73.5,5613.749 and 6203.164 and 5886.042
same,TSA melting curve raw fluorescence signal,[2]; Temperature 74,5569.101 and 6153.132 and 5854.081
same,TSA melting curve raw fluorescence signal,[2]; Temperature 74.5,5525.043 and 6104.144 and 5823.779
same,TSA melting curve raw fluorescence signal,[2]; Temperature 75,5482.121 and 6056.683 and 5794.617
same,TSA melting curve raw fluorescence signal,[2]; Temperature 75.5,5439.984 and 6011.409 and 5766.404
same,TSA melting curve raw fluorescence signal,[2]; Temperature 76,5398.991 and 5968.463 and 5738.594
same,TSA melting curve raw fluorescence signal,[2]; Temperature 76.5,5359.122 and 5928.32 and 5710.64
same,TSA melting curve raw fluorescence signal,[2]; Temperature 77,5320.849 and 5890.984 and 5682.195
same,TSA melting curve raw fluorescence signal,[2]; Temperature 77.5,5284.278 and 5856.438 and 5652.603
same,TSA melting curve raw fluorescence signal,[2]; Temperature 78,5250.129 and 5824.453 and 5622.025
same,TSA melting curve raw fluorescence signal,[2]; Temperature 78.5,5218.737 and 5795.085 and 5590.553
same,TSA melting curve raw fluorescence signal,[2]; Temperature 79,5190.081 and 5767.8 and 5558.166
same,TSA melting curve raw fluorescence signal,[2]; Temperature 79.5,5164.369 and 5742.56 and 5524.814
same,TSA melting curve raw fluorescence signal,[2]; Temperature 80,5141.29 and 5718.857 and 5491.376
same,TSA melting curve raw fluorescence signal,[2]; Temperature 80.5,5120.384 and 5696.2 and 5457.362
same,TSA melting curve raw fluorescence signal,[2]; Temperature 81,5101.31 and 5674.042 and 5422.806
same,TSA melting curve raw fluorescence signal,[2]; Temperature 81.5,5083.427 and 5652.313 and 5387.856
same,TSA melting curve raw fluorescence signal,[2]; Temperature 82,5065.661 and 5630.45 and 5352.463
same,TSA melting curve raw fluorescence signal,[2]; Temperature 82.5,5047.726 and 5608.308 and 5316.196
same,TSA melting curve raw fluorescence signal,[2]; Temperature 83,5028.992 and 5585.969 and 5279.628
same,TSA melting curve raw fluorescence signal,[2]; Temperature 83.5,5009.082 and 5563.202 and 5242.696
same,TSA melting curve raw fluorescence signal,[2]; Temperature 84,4988.359 and 5539.6 and 5205.226
same,TSA melting curve raw fluorescence signal,[2]; Temperature 84.5,4967.168 and 5515.215 and 5167.448
same,TSA melting curve raw fluorescence signal,[2]; Temperature 85,4945.239 and 5489.971 and 5129.648
same,TSA melting curve raw fluorescence signal,[2]; Temperature 85.5,4923.212 and 5463.869 and 5091.727
same,TSA melting curve raw fluorescence signal,[2]; Temperature 86,4900.827 and 5436.832 and 5053.765
same,TSA melting curve raw fluorescence signal,[2]; Temperature 86.5,4877.872 and 5409.317 and 5016.032
same,TSA melting curve raw fluorescence signal,[2]; Temperature 87,4854.433 and 5381.152 and 4978.26
same,TSA melting curve raw fluorescence signal,[2]; Temperature 87.5,4830.501 and 5352.422 and 4939.972
same,TSA melting curve raw fluorescence signal,[2]; Temperature 88,4805.564 and 5322.651 and 4900.899
same,TSA melting curve raw fluorescence signal,[2]; Temperature 88.5,4779.827 and 5291.937 and 4861.053
same,TSA melting curve raw fluorescence signal,[2]; Temperature 89,4753.311 and 5260.016 and 4820.436
same,TSA melting curve raw fluorescence signal,[2]; Temperature 89.5,4725.882 and 5227.256 and 4779.347
same,TSA melting curve raw fluorescence signal,[2]; Temperature 90,4698.144
